Reference: patent US5430062A, “Stilbene derivatives as anticancer agents” (priority 1993, dated 1995)
Where two headings read alike, the source gives them in different places.

Legend:
[1] = tested on: MLM melanoma; experiment: MTT cytotoxicity assay, MLM; details: read-out: Cytotoxicity ED50, MLM
[2] = tested on: A-549 lung carcinoma; experiment: MTT cytotoxicity assay, A-549; details: Homo sapiens, A549, […], read-out: Cytotoxicity ED50, A-549
[3] = tested on: MCF-7 breast carcinoma; experiment: MTT cytotoxicity assay, MCF-7; details: Homo sapiens, MCF7, […], read-out: Cytotoxicity ED50, MCF-7
[4] = tested on: HT-29 colon adenocarcinoma; experiment: MTT cytotoxicity assay, HT-29; details: Homo sapiens, HT-29, […], read-out: Cytotoxicity ED50, HT-29
[5] = tested on: SKMEL-5 melanoma; experiment: MTT cytotoxicity assay, SKMEL-5; details: Homo sapiens, SK-MEL-5, […], read-out: Cytotoxicity ED50, SKMEL-5

Row | Molecule | IC50 ([1]; […]) [µM] | IC50 [2] [µM] | IC50 [3] [µM] | IC50 [4] [µM] | IC50 [5] [µM] | IC50 ([1]; MLM, MTT, six days, 8640 min) [µM]
1 | COc1cc(CCc2ccccc2)cc(OC)c1OC [8f] | > 25 | > 25 | > 25 | > 25 | > 25 | –
2 | COc1cc(CCc2ccncc2)cc(OC)c1OC [8i, 1-(4-Pyridyl)-2-(3,4,5-trimethoxyphenyl)ethane] | > 25 | > 25 | > 25 | > 25 | > 25 | –
3 | COc1cc(CCc2cccnc2)cc(OC)c1OC [8j, 1-(3-Pyridyl)-2-(3,4,5-trimethoxyphenyl)ethane] | > 25 | 12.2 | > 25 | > 25 | > 25 | –
4 | COc1cc(CCc2ccc(O)cc2)cc(OC)c1OC [8o, 1-(4-hydroxyphenyl)-2-(3,4,5-trimethoxyphenyl)ethane] | > 25 | > 25 | > 25 | > 25 | > 25 | –
5 | COc1cc(CCc2ccc(OC(C)=O)cc2)cc(OC)c1OC [8p] | > 25 | 19 | > 25 | > 25 | > 25 | –
6 | COc1ccc(CCc2ccccc2)cc1OC [8q] | > 25 | > 25 | > 25 | > 25 | > 25 | –
7 | COc1ccc(CCc2ccccc2)c(OC)c1OC [8r] | > 25 | > 25 | > 25 | > 25 | > 25 | –
8 | COc1cc(CCc2ccc(OC)c(OC)c2OC)cc(OC)c1OC [8t] | > 25 | > 25 | > 25 | > 25 | > 25 | –
9 | COc1cc(CCc2cc(OC)c(OC)c(OC)c2)cc(OC)c1OC [8u] | > 25 | > 25 | > 25 | > 25 | > 25 | –
10 | COc1cc(OC)c(OC)cc1CCc1cc(OC)c(OC)c(OC)c1 [8v] | > 25 | > 25 | > 25 | > 25 | > 25 | –
11 | COc1ccc(C(=O)Nc2cc(OC)c(OC)c(OC)c2)cc1OC [11b] | > 25 | > 25 | > 25 | > 25 | > 25 | –
12 | COc1ccc(C(=O)Nc2cc(OC)c(OC)c(OC)c2)cc1 [11c, 4-Methoxy-N-(3,4,5-trimethoxyphenyl)benzamide] | > 25 | > 25 | > 25 | > 25 | > 25 | –
13 | COc1ccc(C(=O)Nc2cc(OC)cc(OC)c2)cc1 [11e] | > 25 | > 25 | > 25 | > 25 | > 25 | –
14 | COc1cc(NC(=O)c2cc(OC)c(OC)c(OC)c2)cc(OC)c1OC [11f] | > 25 | > 25 | > 25 | > 25 | > 25 | –
15 | COc1ccc(CNc2cc(OC)c(OC)c(OC)c2)cc1OC [12b] | > 25 | > 25 | > 25 | > 25 | > 25 | –
16 | COc1ccc(CNc2cc(OC)cc(OC)c2)cc1 [12e] | > 25 | > 25 | > 25 | > 25 | > 25 | –
17 | COc1cc(CNc2cc(OC)c(OC)c(OC)c2)cc(OC)c1OC [12f] | > 25 | > 25 | > 25 | > 25 | > 25 | –
18 | COc1cc(/C=C\c2ccc(C)cc2)cc(OC)c1OC [15d, (Z)-(4-Methylphenyl)-2-(3,4,5-trimethoxyphenyl)ethene] | 0.0066 | 0.00094 | 0.024 | 0.0023 | 0.00083 | –
19 | CCc1ccc(/C=C\c2cc(OC)c(OC)c(OC)c2)cc1 [15e, (Z)-(4-Ethylphenyl)-2-(3,4,5-trimethoxyphenyl)ethene] | 0.0075 | 0.012 | 0.072 | 0.0027 | 0.00086 | –
20 | CCCOc1ccc(/C=C/c2cc(OC)c(OC)c(OC)c2)cc1 [16b, (E)-1-(4-n-Propoxyphenyl)-2-(3,4,5-trimethoxyphenyl)ethene] | > 25 | 9.2 | 12.5 | > 25 | > 25 | –
21 | COc1cc(/C=C/c2ccc(C)cc2)cc(OC)c1OC [16d, (E)-(4-Methylphenyl)-2-(3,4,5-trimethoxyphenyl)ethene] | 6.3 | 1.1 | 1.9 | 0.9 | 0.8 | –
22 | (E)-1-[4-(Benzyloxy)-3,5-(dimethoxy)phenyl]-2-(4-methoxyphenyl)ethene [16j] | – | – | – | – | – | > 25
